Data published in patent US5837548A, “Treatment of inflammation by inhibition of lipid body formation” (Beth Israel Hospital, priority 1995, dated 1998).
Read-outs that look alike come from different tables or passages of the source.

Legend:
human neutrophils [1] = test: cis-unsaturated fatty acid-induced lipid body formation in human neutrophils (osmium staining, light microscopy enumeration); format: cell-based; conditions: for inhibition at 1 µM / inhibition at 5 µM / inhibition at 0.5 µM / inhibition at 1 µg/mL / inhibition at 10 µg/mL: Homo sapiens, Neutrophil, basal subtracted; for inhibition at 1 µM: read-out: % inhibition; for inhibition at 1 µg/mL / inhibition at 10 µg/mL: 1 h; for inhibition at 1 µg/mL / lipid bodies (mean ± SEM) PMN / inhibition at 10 µg/mL: 1 h pretreatment; for inhibition of arachidonic acid-induced lipid body formation / inhibition of oleic acid-induced lipid body formation: human neutrophils, staurosporine 0.1-1.0 μM, aspirin 10 μg/mL, others as in Tables 1 and 2
Method: Neutrophils were purified from fresh human blood obtained by venipuncture from healthy adult volunteers and collected into acidified citrate. After addition of 6% dextran 70 (McGaw, Irvine, Calif.), RBCs were allowed to sediment for 1 hour at room temperature. The leukocyte-rich supernatant was overlaid onto an equal volume of Ficoll-Paque gradient (Piscataway, N.J.), and centrifuged at 400×g for 20 min. […] Residual RBCs were lysed with hypotonic saline.
Human leukocytes (10^6 cells/mL) were incubated with varying concentrations of arachidonic acid (AA), oleic acid (OA) or vehicle at 37° C. in a 5% CO2 /95% O2 atmosphere, and after 1 hour leukocytes (10^5 cells per slide) were cytocentrifuged (550 rpm, 5 min) onto glass slides. During inhibitory studies, neutrophils were pretreated for 1 hour with varying concentrations of enzyme inhibitors, protein synthesis inhibitors, or vehicle as indicated. When PKC inhibitors were used, the pre-incubation time was reduced to 30 minutes to avoid toxic effects to the cells. […] Stock solutions for A23187, D609, U-73122, and indomethacin were prepared in DMSO and stored at -20° C. Aliquots were diluted in Ca^++ /Mg^++ fee HBSS to the indicated concentration immediately prior to use. […] The morphology of fixed cells was observed, and lipid bodies were enumerated with phase contrast microscopy and a 100× objective lens in 50 consecutively scanned leukocytes.
Results were expressed as mean±SEM and were analyzed statistically by means of the analysis of variance followed by the Newman-Keuls-Student test with the level of significance set at p<0.05. Correlation coefficients were determined by linear regression, and correlation analysis was performed by Fisher's r to z transformation with the level of significance set at p<0.05.
^1 Neutrophils (10^6 /ml) were pretreated with protein kinase C
(actinomycin D, cycloheximide) for 30 min or with phospholipase C
inhibitors (D609, U73122) for 1 h. The cells were then stimulated with
vehicle, arachidonic acid (15 μM), or oleic acid (10 μM), for 1 h.
Results are mean ± SEM from fifty consecutively counted neutrophils.
Statistically significant differences between the agonist alone and the
inhibitor are represented by an asterisk(*). Percent inhibition has been
calculated after subtracting out the basal number of lipid bodies/PMN
present prior to stimulation.
^1 Neutrophils (10^6 /ml) were pretreated with the NSAID or
vehicle for 1 h then stimulated with vehicle, arachidonic acid, or oleic
± SEM from fifty consecutively counted neutrophils. Statistically
significant differences between the agonist alone and the NSAID are
represented by an asterisk (*). Percent inhibition has been calculated
after subtracting out the basal number of lipid bodies/PMN present prior

[2] = tested on: peritoneal macrophages from wild type mice; test: lipid body formation in peritoneal macrophages from wild type mice; format: cell-based, mouse
Method: (§1) FIG. 4 is a graph illustrating the effects of arachidonic acid and oleic acid on lipid body formation in peritoneal macrophages from wild type (+/+) and cyclooxygenase-1 knockout (-/-) mice. The agonists AA and OA are represented by the square and circle symbols, respectively. The closed symbols represent the wild type mice; the open symbols represent the cyclooxygenase-1 knockout mice. Macrophages (10^6 /mL) were incubated with the agonists AA and OA at varying concentrations for an hour. Lipid bodies were enumerated using light microscopy following osmium staining. Each point represents the mean±SEM from fifty consecutively scanned macrophages.
(§2) Cyclooxygenase-1 and cyclooxygenase-2 knockout mice were generated as recently described (Morham et al., Cell 83:473-482 (1995); Langenbach et al., Cell 83:483-492 (1995)). All experiments were carried out with male 8-12 week old mice. Macrophages from cyclooxygenase genetically deficient mice and wild-type litter mates were obtained by lavaging the peritoneal cavity with 5 mL of cold RPMI containing heparin (20 IU/mL).
(§3) ^1 Peritoneal macrophages from wild type and COX 1 knockout mice were
(§4) pretreated with the NSAID or vehicle for 1h and then stimulated with
(§5) arachidonic acid (AA, 15 μM) or vehicle for 1h. Results are mean ±
(§6) SEM from fifty consecutively counted macrophages. The statistically

[3] = tested on: peritoneal macrophages from COX 1 knockout mice; test: lipid body formation in peritoneal macrophages from cyclooxygenase-1 knockout mice; format: cell-based, mouse
Method: as §1, §2, §3, §4, §5, §6

[4] = tested on: neutrophils (arachidonic acid uptake); test: 14C-arachidonic acid uptake in arachidonic acid-stimulated neutrophils; format: cell-based, human
Method: Neutrophils (10^6 /mL) were labeled with ^14 C-arachidonic acid (0.01 μCi/sample) together with either vehicle, aspirin (10 μg/mL), indomethacin (1 μg/mL) or sodium salicylate (10 μg/mL) for 1 hour. After the incubation period, lipid body formation was elicited by arachidonic acid (15 μM). The cells were washed 3 times in Ca^++ /Mg^++ free HBSS and analysis of incorporated ^14 C-arachidonic acid in the cell pellet was performed by liquid scintillation counting.
^1 The cells were pretreated with ^14 Carachidonic acid (0.01
μCi/sample) plus vehicle, aspirin (10 μg/ml) , sodium salicylate (1
μg/ml) or indomethacin (1 μg/ml) 1 h before the incubation with
arachidonic acid (15 μM). Cells were washed 3 times before the analysi
of incorporated ^14 Carachidonic acid. Results are representative of
independent experiments.

human neutrophils [5] = conditions: cited from earlier work
human eosinophils = conditions: receptor-mediated; cited from earlier work
[6] = arachidonic acid 15 μM, inhibitor 1 μM
[7] = arachidonic acid 15 μM, inhibitor 5 μM
[8] = oleic acid 10 μM, inhibitor 1 μM
[9] = oleic acid 10 μM, inhibitor 5 μM
[10] = arachidonic acid 15 μM, inhibitor 0.5 μM
[11] = oleic acid 10 μM, inhibitor 0.5 μM
[12] = arachidonic acid 15 μM, NSAID 1 μg/ml
[13] = oleic acid 10 μM, NSAID 1 μg/ml
[14] = wild type, AA 15 μM, NSAID 1 μg/ml
[15] = COX 1 knockout, AA 15 μM, NSAID 1 μg/ml
[16] = arachidonic acid 15 μM, NSAID 10 μg/ml
[17] = oleic acid 10 μM, NSAID 10 μg/ml

## COc1ccc2c(c1)CC[C@@H]1[C@@H]2CC[C@]2(C)[C@@H](NCCCCCCN3C(=O)C=CC3=O)CC[C@@H]12 [U-73122]
Human neutrophils [1]; [6]
  inhibition at 1 µM: 45%
  lipid bodies (mean ± SEM)/cell: 6.6 ± 0.2 lipid bodies/cell
Human neutrophils [1]; [7]
  inhibition at 5 µM: 85%
  lipid bodies (mean ± SEM)/cell: 4.9 ± 0.2 lipid bodies/cell
Human neutrophils [1]; [8]
  inhibition at 1 µM: 8%
  lipid bodies (mean ± SEM)/cell: 19.3 ± 0.4 lipid bodies/cell
Human neutrophils [1]; [9]
  inhibition at 5 µM: 24%
  lipid bodies (mean ± SEM)/cell: 16.9 ± 0.4 lipid bodies/cell

## COc1ccc2c(c[n+](C)c3c4cc5c(cc4ccc23)OCO5)c1OC [chelerythrine]
Human neutrophils [1]; [10]
  inhibition at 0.5 µM: 50%
  lipid bodies (mean ± SEM)/cell: 7.5 ± 0.3 lipid bodies/cell
Human neutrophils [1]; [6]
  inhibition at 1 µM: 90%
  lipid bodies (mean ± SEM)/cell: 5.1 ± 0.3 lipid bodies/cell
Human neutrophils [1]; [11]
  inhibition at 0.5 µM: 25%
  lipid bodies (mean ± SEM)/cell: 7.5 ± 0.2 lipid bodies/cell
Human neutrophils [1]; [8]
  inhibition at 1 µM: 71%
  lipid bodies (mean ± SEM)/cell: 5.8 ± 0.3 lipid bodies/cell

## COc1ccc2c(c1)c(CC(=O)O)c(C)n2C(=O)c1ccc(Cl)cc1 [indomethacin]
Human neutrophils [1]; [12]
  inhibition at 1 µg/mL: 63%
  lipid bodies (mean ± SEM) PMN: 7.0 ± 0.5 lipid bodies/PMN
Human neutrophils [1]; [13]
  inhibition at 1 µg/mL: 61%
  lipid bodies (mean ± SEM) PMN: 9.1 ± 0.5 lipid bodies/PMN
Human neutrophils [1]
  inhibition of arachidonic acid-induced lipid body formation: significantly inhibited
  inhibition of oleic acid-induced lipid body formation: significantly inhibited
[2]; [14]
  % inhibition: 61%
  lipid bodies (mean ± SEM)/macrophage: 4.4 ± 0.3 lipid bodies/macrophage
[2]; wild-type mice, 10 μg/mL
  inhibition of lipid body formation in macrophages: significantly inhibited
[3]; [15]
  % inhibition: 48%
  lipid bodies (mean ± SEM)/macrophage: 4.8 ± 0.4 lipid bodies/macrophage
[3]; cyclooxygenase-1-deficient mice, 10 μg/mL
  inhibition of lipid body formation in macrophages: significantly inhibited
[4]; arachidonic acid-stimulated cells, aspirin 10 μg/mL, sodium salicylate 10 μg/mL, indomethacin 1 μg/mL
  inhibition of 14C-arachidonic acid uptake: failed to inhibit
[4]; stimulus arachidonate 15 μM, drug 1 μg/ml (table footnote)
  14C-AA uptake: 7095 cpm

## CCCCCCCCCCCCCC(=O)O[C@@H]1[C@@H](C)[C@@]2(O)[C@@H](C=C(CO)C[C@]3(O)C(=O)C(C)=C[C@@H]23)[C@@H]2C(C)(C)[C@]12OC(C)=O [phorbol-12-myristate-13-acetate]
Human neutrophils [5]
  induction of lipid body formation: induce lipid body formation

## CN1C(C(=O)Nc2ccccn2)=C(O)c2ccccc2S1(=O)=O [piroxicam]
Human neutrophils [1]; [16]
  inhibition at 10 µg/mL: 61%
  lipid bodies (mean ± SEM) PMN: 7.2 ± 0.4 lipid bodies/PMN
Human neutrophils [1]; [17]
  inhibition at 10 µg/mL: 50%
  lipid bodies (mean ± SEM) PMN: 10.4 ± 0.4 lipid bodies/PMN
Human neutrophils [1]
  inhibition of arachidonic acid-induced lipid body formation: significantly inhibited
  inhibition of oleic acid-induced lipid body formation: significantly inhibited

## CCCCCCCCCCCCCCCCOCC(COP(=O)([O-])OCC[N+](C)(C)C)OC(C)=O (centres unmarked) [platelet activating factor]
Human neutrophils [5]
  induction of lipid body formation: Lipid body formation is also induced
Human neutrophils [5]; listed as PAF
  induction of lipid body formation: elicit lipid body formation
Human eosinophils
  induction of lipid body formation: elicit lipid body formation

## CN[C@@H]1C[C@H]2O[C@@](C)([C@@H]1OC)n1c3ccccc3c3c4c(c5c6ccccc6n2c5c31)C(=O)NC4 [staurosporine]
Human neutrophils [1]; arachidonic acid 15 μM, inhibitor 0.1 μM
  lipid bodies (mean ± SEM)/cell: 6.1 ± 0.3 lipid bodies/cell
Human neutrophils [1]; [6]
  lipid bodies (mean ± SEM)/cell: 5.1 ± 0.2 lipid bodies/cell
Human neutrophils [1]; oleic acid 10 μM, inhibitor 0.1 μM
  lipid bodies (mean ± SEM)/cell: 8.3 ± 0.3 lipid bodies/cell
Human neutrophils [1]; [8]
  lipid bodies (mean ± SEM)/cell: 7.7 ± 0.3 lipid bodies/cell
